Measured values published in patent US20220251141A1, “IMMUNOMODULATORS” (Bristol-Myers Squibb Company, priority 2019, published 2022).
Numbered stars: 1 amine (or outer) side, 2 acyl side, 3 side chain; on linkers, the order of the positions; unused ones are H or OH. Bridge positions count the residues as written; N and C are the ends. Square brackets hold non-standard residues; d marks the D form. Side chains are listed from the residue outwards. Peptide text beside a SMILES is read from it. * marks the point of attachment. X6 = CC(C)C[C@H](N[*:1])C(=O)C1C[C@H](O)C[C@H]1C(=O)[*:2]; Trp(1-CH2CO2Me) = COC(=O)Cn1cc(C[C@H](N)C(=O)O)c2ccccc21; Trp(1-CH2COOH) = N[C@@H](Cc1cn(CC(=O)O)c2ccccc12)C(=O)O; NHCH2CH2Ph(3,4-OCH2O) = c1cc2c(cc1CCN*)OCO2; Trp(1-Me) = Cn1cc(C[C@H](N)C(=O)O)c2ccccc21; Phe(4-F) = N[C@@H](Cc1ccc(F)cc1)C(=O)O; Dab(CONH2) = NC(=O)NCC[C@H](N)C(=O)O; Hyp = O=C(O)[C@@H]1C[C@@H](O)CN1; Myristoyl = CCCCCCCCCCCCCC(=O)*; NMeNle = CCCC[C@H](NC)C(=O)O; Pen = CC(C)(S)[C@H](N)C(=O)O; Pip = O=C(O)[C@@H]1CCCCN1; NMeA = CN[C@@H](C)C(=O)O; X7 = COc1ccc(CN*)c(OC)c1; Dab = NCC[C@H](N)C(=O)O; Dap = NC[C@H](N)C(=O)O; Hexanoyl = CCCCCC(=O)*; NH(heptyl) = CCCCCCCN*; Boc = CC(C)(C)OC(=O)*; CO = O=C([*:1])[*:2]; Piv = CC(C)(C)C(=O)*

Each molecule was assayed against T1, PD-1/PD-L1 (Homo sapiens, UniProt Q9NZQ7) (assay: PD-1/PD-L1 Homogenous Time-Resolved Fluorescence (HTRF) binding assay). Settings: PD-L1-His 10 nM final, PD-1-Ig 20 nM final; inhibitors pre-incubated with PD-L1-His for 15 m.
T1 construct: TVMV protease site linker (C); made in house; host or cells: HEK293T cells
Procedure, shortened: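 Compounds pre-incubated 15 min with human PD-L1(18-239)-His (10 nM final), then PD-1(25-167)-Ig (20 nM final) added for 15 min, in dPBS with 0.1% BSA and 0.05% Tween-20. Eu-cryptate anti-Ig (1 nM) and APC anti-His (20 nM) added, 30 min equilibration, 665/620 nm ratio read; IC50 reported.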

IC50 [nM] | Compound
10.4 | CCCC[C@H]1C(=O)N(C)[C@@H](CCCC)C(=O)N[C@@H](CC(C)C)C(=O)N[C@H](C(N)=O)C(C)(C)SCC(=O)N[C@@H](Cc2ccc(F)cc2)C(=O)N2CCCC[C@H]2C(=O)N[C@@H](CC(=O)O)C(=O)N2CCC[C@H]2C(=O)N[C@@H](CNC(=O)C(C)(C)C)C(=O)N[C@@H](CC(C)C)C(=O)N2C[C@H](O)C[C@H]2C(=O)N[C@@H](Cc2c[nH]c3ccccc23)C(=O)N[C@@H](CCN)C(=O)N[C@@H](Cc2cn(CC(=O)O)c3ccccc23)C(=O)N1C [Example 20060] ({CH2CO}-[Phe(4-F)][Pip]DP[Dap](Piv)L[Hyp]W[Dab][Trp(1-CH2COOH)][NMeNle][NMeNle]L[Pen]-NH2; thioether N-14)
> 10000 | CCCCCCCCCCCCCC(=O)NCC[C@@H]1NC(=O)[C@H](Cc2c[nH]c3ccccc23)NC(=O)[C@@H]2C[C@@H](O)CN2C(=O)[C@H](CC(C)C)NC(=O)[C@H](CNC(=O)CCCCCCCCCCCCC)NC(=O)[C@@H]2CCCN2C(=O)[C@H](CC(N)=O)NC(=O)[C@H](C)N(C)C(=O)[C@H](Cc2ccc(O)cc2)NC(=O)CSC[C@@H](C(=O)NCC(N)=O)NC(=O)[C@H](CC(C)C)NC(=O)[C@H](CCCC)N(C)C(=O)[C@H](CCCC)N(C)C(=O)[C@H](Cc2cn(CC(=O)OC)c3ccccc23)NC1=O [Example 1005] ({CH2CO}-Y[NMeA]NP[Dap](Myristoyl)L[Hyp]W[Dab](Myristoyl)[Trp(1-CH2CO2Me)][NMeNle][NMeNle]LCG-NH2; thioether N-14)
0.74 | CCCC[C@H]1C(=O)N(C)[C@@H](CCCC)C(=O)N[C@@H](CC(C)C)C(=O)N[C@H](C(=O)NCC(N)=O)CSCC(=O)N[C@@H](Cc2ccc(O)cc2)C(=O)N(C)[C@@H](C)C(=O)N[C@@H](CC(N)=O)C(=O)N2CCC[C@H]2C(=O)N[C@@H](CNC(=O)N(C)C)C(=O)N[C@@H](CC(C)C)C(=O)N2C[C@H](O)C[C@H]2C(=O)N[C@@H](Cc2c[nH]c3ccccc23)C(=O)N[C@@H](CCNC(=O)N(C)C)C(=O)N[C@@H](Cc2cn(CC(=O)O)c3ccccc23)C(=O)N1C [Example 1032] ({CH2CO}-Y[NMeA]NP[Dap]([CO-NMe2])L[Hyp]W[Dab]([CO-NMe2])[Trp(1-CH2COOH)][NMeNle][NMeNle]LCG-NH2; thioether N-14)
3.4 | CCCC[C@H]1C(=O)N(C)[C@@H](CCCC)C(=O)N[C@@H](CC(C)C)C(=O)N[C@H](C(=O)NCC(N)=O)CSCC(=O)N[C@@H](Cc2ccc(O)cc2)C(=O)N(C)[C@@H](C)C(=O)N[C@@H](CC(N)=O)C(=O)N2CCC[C@H]2C(=O)N[C@@H](CNC(=O)OC(C)(C)C)C(=O)N[C@@H](CC(C)C)C(=O)C2C[C@H](O)C[C@H]2C(=O)N[C@@H](Cc2c[nH]c3ccccc23)C(=O)N[C@@H](CCNC(N)=O)C(=O)N[C@@H](Cc2cn(CC(=O)OC)c3ccccc23)C(=O)N1C (stereo partly shown) [Example 2001] ({CH2CO}-Y[NMeA]NP[Dap](Boc)[X6]W[Dab(CONH2)][Trp(1-CH2CO2Me)][NMeNle][NMeNle]LCG-NH2; thioether N-13)
3 | CCCC[C@H]1C(=O)N(C)[C@@H](CCCC)C(=O)N[C@@H](CC(C)C)C(=O)N[C@H](C(=O)NCC(N)=O)CSCC(=O)N[C@@H](Cc2ccc(O)cc2)C(=O)N(C)[C@@H](C)C(=O)N[C@@H](CC(N)=O)C(=O)N2CCC[C@H]2C(=O)N[C@@H](CNC(=O)NCc2ccc(OC)cc2OC)C(=O)N[C@@H](CC(C)C)C(=O)N2C[C@H](O)C[C@H]2C(=O)N[C@@H](Cc2c[nH]c3ccccc23)C(=O)N[C@@H](CCN)C(=O)N[C@@H](Cc2cn(CC(=O)O)c3ccccc23)C(=O)N1C [Example 1043] ({CH2CO}-Y[NMeA]NP[Dap]([CO-X7])L[Hyp]W[Dab][Trp(1-CH2COOH)][NMeNle][NMeNle]LCG-NH2; thioether N-14)
70.1 | CCCC[C@H]1C(=O)N(C)[C@@H](CCCC)C(=O)N[C@@H](CCC(=O)O)C(=O)N[C@H](C(N)=O)CSCC(=O)N[C@@H](Cc2ccc(F)cc2)C(=O)N2CCCC[C@H]2C(=O)N[C@@H](CC(=O)O)C(=O)N2CCC[C@H]2C(=O)N[C@@H](CNC(=O)C(C)(C)C)C(=O)N[C@@H](CC(C)C)C(=O)N2C[C@H](O)C[C@H]2C(=O)N[C@@H](Cc2c[nH]c3ccccc23)C(=O)N[C@@H](CCNC(=O)C(C)(C)C)C(=O)N[C@@H](Cc2cn(C)c3ccccc23)C(=O)N1C [Example 20290] ({CH2CO}-[Phe(4-F)][Pip]DP[Dap](Piv)L[Hyp]W[Dab](Piv)[Trp(1-Me)][NMeNle][NMeNle]EC-NH2; thioether N-14)
10.4 | CCCC[C@H]1C(=O)N(C)[C@@H](CCCC)C(=O)N[C@@H](CC(C)C)C(=O)N[C@H](C(N)=O)CSCC(=O)N[C@@H](Cc2ccc(F)cc2)C(=O)N2CCCC[C@H]2C(=O)N[C@@H](CC(=O)O)C(=O)N2CCC[C@H]2C(=O)N[C@@H](CNC(=O)C(C)(C)C)C(=O)N[C@@H](CC(C)C)C(=O)N2C[C@H](O)C[C@H]2C(=O)N[C@@H](Cc2c[nH]c3ccccc23)C(=O)N[C@@H](CCN)C(=O)N[C@@H](Cc2cn(CC(=O)O)c3ccccc23)C(=O)N1C [Example 20050] ({CH2CO}-[Phe(4-F)][Pip]DP[Dap](Piv)L[Hyp]W[Dab][Trp(1-CH2COOH)][NMeNle][NMeNle]LC-NH2; thioether N-14)
11.1 | CCCC[C@H]1C(=O)N(C)[C@@H](CCCC)C(=O)N[C@@H](CC(C)C)C(=O)N[C@H](C(N)=O)CSCC(=O)N[C@@H](Cc2ccc(F)cc2)C(=O)N2CCCC[C@H]2C(=O)N[C@@H](CC(=O)O)C(=O)N2CCC[C@H]2C(=O)N[C@@H](CNC(=O)C(C)(C)C)C(=O)N[C@@H](CCCCN)C(=O)N2C[C@H](O)C[C@H]2C(=O)N[C@@H](Cc2c[nH]c3ccccc23)C(=O)N[C@@H](CCNC(=O)C(C)(C)C)C(=O)N[C@@H](Cc2cn(CC(=O)O)c3ccccc23)C(=O)N1C [Example 20090] ({CH2CO}-[Phe(4-F)][Pip]DP[Dap](Piv)K[Hyp]W[Dab](Piv)[Trp(1-CH2COOH)][NMeNle][NMeNle]LC-NH2; thioether N-14)
50.3 | CCCC[C@H]1C(=O)N(C)[C@@H](CCCC)C(=O)N[C@@H](CC(C)C)C(=O)N[C@H](C(N)=O)CSCC(=O)N[C@@H](Cc2ccc(F)cc2)C(=O)N2CCCC[C@H]2C(=O)N[C@@H](CC(N)=O)C(=O)N2CCC[C@H]2C(=O)N[C@@H](CNC(=O)C(C)(C)C)C(=O)N[C@@H](CC(C)C)C(=O)N2C[C@H](O)C[C@H]2C(=O)N[C@@H](Cc2c[nH]c3ccccc23)C(=O)N[C@@H](CCNC(=O)C(C)(C)C)C(=O)N[C@@H](Cc2cn(C)c3ccccc23)C(=O)N1C [Example 20280] ({CH2CO}-[Phe(4-F)][Pip]NP[Dap](Piv)L[Hyp]W[Dab](Piv)[Trp(1-Me)][NMeNle][NMeNle]LC-NH2; thioether N-14)
24 | CCCCCCCNC(=O)NCC[C@@H]1NC(=O)[C@H](Cc2c[nH]c3ccccc23)NC(=O)[C@@H]2C[C@@H](O)CN2C(=O)[C@H](CC(C)C)NC(=O)[C@H](CNC(=O)NCCCCCCC)NC(=O)[C@@H]2CCCN2C(=O)[C@H](CC(N)=O)NC(=O)[C@H](C)N(C)C(=O)[C@H](Cc2ccc(O)cc2)NC(=O)CSC[C@@H](C(=O)NCC(N)=O)NC(=O)[C@H](CC(C)C)NC(=O)[C@H](CCCC)N(C)C(=O)[C@H](CCCC)N(C)C(=O)[C@H](Cc2cn(CC(=O)OC)c3ccccc23)NC1=O [Example 2003] ({CH2CO}-Y[NMeA]NP[Dap]([CO-NH(heptyl)])L[Hyp]W[Dab]([CO-NH(heptyl)])[Trp(1-CH2CO2Me)][NMeNle][NMeNle]LCG-NH2; thioether N-14)
8.3 | CCCCCCCNC(=O)NCC[C@@H]1NC(=O)[C@H](Cc2c[nH]c3ccccc23)NC(=O)[C@@H]2C[C@@H](O)CN2C(=O)[C@H](CC(C)C)NC(=O)[C@H](CNC(=O)NCCCCCCC)NC(=O)[C@@H]2CCCN2C(=O)[C@H](CC(N)=O)NC(=O)[C@H](C)N(C)C(=O)[C@H](Cc2ccc(O)cc2)NC(=O)CSC[C@@H](C(=O)NCC(N)=O)NC(=O)[C@H](CC(C)C)NC(=O)[C@H](CCCC)N(C)C(=O)[C@H](CCCC)N(C)C(=O)[C@H](Cc2cn(CC(=O)O)c3ccccc23)NC1=O [Example 1035] ({CH2CO}-Y[NMeA]NP[Dap]([CO-NH(heptyl)])L[Hyp]W[Dab]([CO-NH(heptyl)])[Trp(1-CH2COOH)][NMeNle][NMeNle]LCG-NH2; thioether N-14)
22 | CCCCCC(=O)NCC[C@@H]1NC(=O)[C@H](Cc2c[nH]c3ccccc23)NC(=O)[C@@H]2C[C@@H](O)CN2C(=O)[C@H](CC(C)C)NC(=O)[C@H](CNC(=O)CCCCC)NC(=O)[C@@H]2CCCN2C(=O)[C@H](CC(N)=O)NC(=O)[C@H](C)N(C)C(=O)[C@H](Cc2ccc(O)cc2)NC(=O)CSC[C@@H](C(=O)NCC(N)=O)NC(=O)[C@H](CC(C)C)NC(=O)[C@H](CCCC)N(C)C(=O)[C@H](CCCC)N(C)C(=O)[C@H](Cc2cn(CC(=O)OC)c3ccccc23)NC1=O [Example 1006] ({CH2CO}-Y[NMeA]NP[Dap](Hexanoyl)L[Hyp]W[Dab](Hexanoyl)[Trp(1-CH2CO2Me)][NMeNle][NMeNle]LCG-NH2; thioether N-14)

Compound | IC50 [nM]
CCCC[C@H]1C(=O)N(C)[C@@H](CCCC)C(=O)N[C@@H](CC(C)C)C(=O)N[C@H](C(=O)NCC(N)=O)CSCC(=O)N[C@@H](Cc2ccc(O)cc2)C(=O)N(C)[C@@H](C)C(=O)N[C@@H](CC(N)=O)C(=O)N2CCC[C@H]2C(=O)N[C@@H](CNC(=O)NCCc2ccc3c(c2)OCO3)C(=O)N[C@@H](CC(C)C)C(=O)N2C[C@H](O)C[C@H]2C(=O)N[C@@H](Cc2c[nH]c3ccccc23)C(=O)N[C@@H](CCNC(=O)NCCc2ccc3c(c2)OCO3)C(=O)N[C@@H](Cc2cn(CC(=O)O)c3ccccc23)C(=O)N1C [Example 1048] ({CH2CO}-Y[NMeA]NP[Dap]([CO-NHCH2CH2Ph(3,4-OCH2O)])L[Hyp]W[Dab]([CO-NHCH2CH2Ph(3,4-OCH2O)])[Trp(1-CH2COOH)][NMeNle][NMeNle]LCG-NH2; thioether N-14) | 1.1
